What was measured:
[1] = Reactivity test, water based clear formulation (FT-IR photopolymerization); settings: 3% wt photoinitiator + 3% wt triethanolamine in UCECOAT7200/Ebecryl 350 99:1
Procedure: The photopolymerizable compositions for the test were prepared dissolving the photoinitiators and the co-initiator, triethanolamine, at a concentration of 3% by weight (wt) each in a mixture 99:1 wt of UCECOAT7200 and Ebecryl 350 (Allnex). The reference compound Omnirad 819 DW (45% wt in water) (COMP-1) was dissolved at a concentration of 6.6% by weight to have the same amount of active content.
The photopolymerizable compositions placed in the sample lodgment of a FT-IR (FT-IR 430-Jasco), were exposed to two different sources: • 1) a LED source (400 nm) located at a distance of 25 mm from the sample and at an angle of 30°. (Table 1) • 2) A Mercury lamp (160 W) located at a distance of 65 mm from the sample and at an angle of 30°. (Table 2)
IR spectra were acquired at constant time intervals during the photopolymerization and the reduction over the time of the area of the peaks at 1408 and 810 cm^−1 assigned to the acrylic double bonds was determined using the IR software. This allows quantifying the degree of polymerization and therefore the efficiency of the photoinitiator.
The results at 400 nm, expressed as % of polymerization over the time, are reported in Table 1 and the results with the Mercury lamp are reported in Table 2.

[2] = Reactivity test, water based black inkjet ink (FT-IR photopolymerization); settings: 5.0% wt photoinitiator + 5.0% wt triethanolamine in water based black ink
Procedure: The photopolymerizable compositions for the test were prepared by dissolving the photoinitiators and the co-initiator triethanolamine at a concentration of 5.0% wt each in a water based black ink for ink-jet printing. The reference compound Omnirad 819 DW (45% wt in water) (COMP-1) was dissolved at a concentration of 11% by weight to have the same amount of active content.
The photopolymerizable compositions placed in the sample lodgment of a FT-IR (FT-IR 430-Jasco), were exposed to two different sources: • 1) a LED source (400 nm) located at a distance of 25 mm from the sample and at an angle of 30°. (Table 3) • 2) A Mercury lamp (160 W) located at a distance of 65 mm from the sample and at an angle of 30°. (Table 4)
IR spectra were acquired at constant time intervals during the photopolymerization and the reduction over the time of the area of the peaks at 1408 cm^−1 and 810 cm^−1 assigned to the acrylic double bonds was determined using the IR software. This allows quantifying the degree of polymerization and therefore the efficiency of the photoinitiator.
The results at 400 nm, expressed as % of polymerization over the time, are reported in Table 3 and the results with the Mercury lamp are reported in Table 4.

COc1cc(OC)c2cc(C(=O)c3ccc(CC[N+]4(C)CCCCC4)cc3)c(=O)oc2c1.[Cl-] [Example 14]
% of polymerization over the time ([1]; LED source 400 nm, 0.5 sec): 23%
% of polymerization over the time ([1]; LED source 400 nm, 2 sec): 27%
% of polymerization over the time ([1]; Mercury lamp 160 W, 0.2 sec): 15%
% of polymerization over the time ([1]; Mercury lamp 160 W, 1 sec): 23%
% of polymerization over the time ([2]; LED source 400 nm, 0.5 sec): 38%
% of polymerization over the time ([2]; LED source 400 nm, 2 sec): 62%
% of polymerization over the time ([2]; Mercury lamp 160 W, 0.2 sec): 67%
% of polymerization over the time ([2]; Mercury lamp 160 W, 1 sec): 89%

COc1cc(OC)c2cc(C(=O)c3ccc(CCC(=O)O)cc3)c(=O)oc2c1 [Example 8]
% of polymerization over the time ([1]; LED source 400 nm, 0.5 sec): 7%
% of polymerization over the time ([1]; LED source 400 nm, 2 sec): 15%
% of polymerization over the time ([1]; Mercury lamp 160 W, 0.2 sec): 9%
% of polymerization over the time ([1]; Mercury lamp 160 W, 1 sec): 16%

Source: patent US11485719B2, “Water soluble 3-ketocoumarins” (priority 2017, dated 2022)
